According to patent US10835500B2, “Medicament for accelerated wound healing” (Symrise AG, priority 2014, dated 2020):
Entries after “also recorded” stand apart in the source; their conditions may differ.

Key:
[1] = system: primary keratinocytes; assay: Calcium imaging in primary keratinocytes; assay type: cell-based, human; conditions: primary keratinocytes; for calcium signals on repeated stimulation: repeated application (500 μM in FIG. 9)
Source text: The Sandalore®-induced signal cascade in HaCaT cells and primary keratinocytes was pharmacologically characterized using the calcium imaging technique and specific blockers of signal cascade proteins. An investigation was first conducted in order to determine whether the calcium signals are caused by calcium inflow from the extracellular space. For this purpose, a calcium-free extracellular solution was used with a calcium chelator (EGTA) added. […] In order to investigate the role of adenylyl cyclase, the specific blockers SQ-22536 and MDL-12330A were used. […] The efficacy of the blockers was tested in this case with histamine, which activated the PLC signalling pathway (FIG. 11c).
Effect of the OR2AT4 ligand Sandalore® on intracellular calcium concentration of cultivated keratinocytes. […] 100 μM of ATP was used at the end of each measurement as a positive control stimulus. Right: Quantitative evaluation of calcium signals in 4-time application of Sandalore® (500 μM). Shown are the mean values of the individual applications including standard error. Mann-Whitney U test. *: p<0.05. C) and D): dose-dependent activation of HaCaT cells in calcium imaging experiments. Shown are the mean amplitudes including standard error at various concentrations in the first (C) and fourth (D) Sandalore® application. Number of cells measured: 0.0125 mM (39), 0.025 mM (30), 0.1 mM (46), 0.5 mM (34), 1 mM (63), 2 mM (41), 10 mM (36).
A) Representative calcium imaging traces of HaCaT cells (left) and primary keratinocytes (right) incubated with the gap junction blocker 1-octanol (500 μM) and then repeatedly stimulated with Sandalore® (500 μM, horizontal bars) (blue trace). […] 100 μM of ATP was used at the end of each measurement as a positive control stimulus. Quantitative evaluation of HaCaT cells (B) and primary keratinocytes (C) incubated with the gap junction blockers 1-octanol (500 μM) or carbenoxolone (10 μM) and then repeatedly stimulated with Sandalore® (500 μM) or Lyral (1 mM) in calcium imaging experiments. Shown are the mean values of the individual applications including standard error relative to the control measurements (Sandalore® application without blocker). Mann-Whitney U test. Number of cells measured: Sandalore®+1-octanol (HaCaT (110), keratinocytes (26)); Sandalore®+carbenoxolone: HaCaT (74); Lyral+carbenoxolone: HaCaT (43). ***: p<0.001.
Pharmacological characterization of Sandalore®-induced signal cascade in human keratinocytes. A)-D). Shown are representative calcium imaging traces of primary keratinocytes in the presence of a blocker (blue). The horizontal bars correspond to the application times. 100 μM of ATP was used at the end of each measurement as a positive control stimulus. A) Measurement with calcium-free extracellular solution (+10 mM EGTA). B) Measurement with the adenylyl cyclase blocker SQ-22536 (100 μM). C) Use of the phospholipase-C blocker U-73122 (10 μM). 100 μM of histamine was taken as a positive control. D) Measurement with the CNG channel blocker L-cis-diltiazem (150 μM). E) Overview of pharmacological measurement of HaCaT cells and primary keratinocytes (Kera). The mean amplitudes relative to the control measurements (dashed line) are indicated. MDL-12330A (40 μM). EGTA: calcium-free Ringer (HaCaT n=46, Kera n=52), SQ: SQ-22536 (HaCaT n=60, Kera n=26), MDL: MDL-12330A (HaCaT n=69, Kera n=24), U-73122 (HaCaT n=41, Kera n=25), L-cis-D.: L-cis-diltiazem (HaCaT n=41, Kera n=25). Mann-Whitney U test. ***: p<0.001. F) Determination of the cAMP contents of HaCaT cells after stimulation with Sandalore® by means of cAMP-Glo™ assays. The dots show the mean cAMP content including standard error after 10-minute Sandalore® stimulation (1 μM-10,000 μM). Significance was determined between HaCaT cells stimulated with Sandalore® and stimulated with an equivalent volume of DMSO (0.2%). Kruskal-Wallis Test with multiple comparison; n=3 experiments. *: p<0.05.

[2] = system: HaCaT cells; assay: Proliferation assay (CyQuant) on HaCaT cells; assay type: cell-based, human
Experimental: It was next investigated whether Sandalore® has an effect on the growth behavior of skin cells. For this purpose, HaCaT cells were again stimulated for five days with Sandalore®, and cell count determination was carried out by means of a proliferation assay. […] In order to verify that this increase in proliferation is induced via activation of OR2AT4, HaCaT cells were transfected with siRNA or scRNA respectively, and the proliferation assay was repeated.
In addition, the cell count was determined after costimulation (1:1) by Sandalore® (500 μM) with the antagonists Oxyphenylon (500 μM) or Phenirat (500 μM). […] The effect was significant for Oxyphenylon.
Effect of Sandalore® long-term stimulation on morphology, growth, and migration processes in keratinocytes. A) Phase contrast image and PI stains of HaCaT cells and primary keratinocytes after stimulation with Sandalore® (500 μM) or 0.1% DMSO (control) for five days. On positive PI staining, the cell nuclei are stained red. Scale: 100 μm. B) Evaluation of the proliferation assay carried out with the CyQuant Cell Proliferation Kit on HaCaT cells after 5-day stimulation with 500 μM of Sandalore® or 0.1% DMSO (control). For the RNA interference experiments, the cells were transfected with siRNA or scRNA on the day before Sandalore® stimulation. Shown is the mean cell count including standard error relative to untreated cells. Mann-Whitney U test; n=3 experiments. *: p<0.05; **: p<0.01. S: Sandalore. C) Agarose assay for determination of migration of HaCaT cells. Top: Transmitted light images of HaCaT cells that have migrated in the direction of Sandalore® (500 μM) or 0.1% DMSO. The growth margin of the cells was surrounded in black. Scale: 250 μm. Bottom: Evaluation of the proliferation assay. The longest path traversed by the cells and the overgrown area were measured and compared to the control (0.1% DMSO). Paired two-sided T test. Mean values including standard error; n=4 experiments. **: p<0.01; ***: p<0.001.

| SMILES | calcium signals on repeated stimulation [1] | effect of antagonist alone on proliferation ([2]; antagonist alone) | proliferation after costimulation with Sandalore ([2]; costimulation 1:1, Sandalore 500 μM + antagonist 500 μM) | increase of proliferation compared to the control (0.1% DMSO) ([2]; 5-day stimulation, 500 μM) | share of cells repeatedly stimulated ([1]; calcium imaging) | calcium signals on repeated stimulation ([1]; listed as Sandalore) |
| --- | --- | --- | --- | --- | --- | --- |
| CC1=CCC(CCC(C)CO)C1(C)C (stereo not shown) [Brahmanol®] | significant sensitization |  |  |  |  |  |
| CC(=O)CCc1ccc(O)cc1 [Oxyphenylon] |  | no significant effect | proliferation was reduced. The effect was significant |  |  |  |
| CC1=CCC(CCC(C)C(C)O)C1(C)C (stereo not shown) [Sandalore®] | significant sensitization; also recorded: induced calcium signals |  |  | 33% | 80-90% | significant sensitization |
